# Measurements: patent publication US11827657B2, “Boron containing pyrazole compounds, compositions comprising them, methods and uses thereof” (BOEHRINGER INGELHEIM ANIMAL HEALTH USA INC., priority 2020, dated 2023)
# Molecular target: JAK1 (Homo sapiens, UniProt P23458)
# Test: Biochemical Kinase Assay (JAK), 33P-ATP filter-binding
# Settings: Biochemical Kinase Inhibition Assay; potency level of IC50; read-out: JAK1 (range)
# Description: Biochemical Kinase Assay Protocol (JAK) • Reagent: Base Reaction buffer; 20 mM Hepes (pH 7.5), 10 mM MgCl2, 1 mM EGTA, 0.02% Brij™ 35, 0.02 mg/ml BSA, 0.1 mM Na3VO4, 2 mM DTT, 1% DMSO, where required cofactors were added individually to each kinase reaction.
# Reaction Procedure: • 1. Prepared indicated substrate in freshly prepared Base Reaction Buffer • 2. Delivered any required cofactors to the substrate solution above • 3. Delivered indicated kinase into the substrate solution and gently mix • 4. Delivered compounds in DMSO into the kinase reaction mixture by Acoustic technology (Echo550; nanoliter range), incubated for 20 minutes at room temperature • 5. Delivered 33P-ATP into the reaction mixture to initiate the reaction. • 6. Incubated kinase reaction for 2 hours at room temperature • 7. Reactions were spotted onto P81 ion exchange paper • 8. Detected kinase activity by filter-binding method.
# Compounds according to the present invention were tested in the Biochemical Kinase Assay Protocol. The results are provided below in Table 1, wherein the potency levels A, B, and C in the columns labeled JAK1 (range) correspond to IC50 as follows: A<10 nM; B=10-50 nM and C>50 nM. The Example Number entries formatted ##a represent stereoisomer one and entries formatted ##b represent stereoisomer two.
# Chain of JAK1 (P23458 whole entry, species assumed): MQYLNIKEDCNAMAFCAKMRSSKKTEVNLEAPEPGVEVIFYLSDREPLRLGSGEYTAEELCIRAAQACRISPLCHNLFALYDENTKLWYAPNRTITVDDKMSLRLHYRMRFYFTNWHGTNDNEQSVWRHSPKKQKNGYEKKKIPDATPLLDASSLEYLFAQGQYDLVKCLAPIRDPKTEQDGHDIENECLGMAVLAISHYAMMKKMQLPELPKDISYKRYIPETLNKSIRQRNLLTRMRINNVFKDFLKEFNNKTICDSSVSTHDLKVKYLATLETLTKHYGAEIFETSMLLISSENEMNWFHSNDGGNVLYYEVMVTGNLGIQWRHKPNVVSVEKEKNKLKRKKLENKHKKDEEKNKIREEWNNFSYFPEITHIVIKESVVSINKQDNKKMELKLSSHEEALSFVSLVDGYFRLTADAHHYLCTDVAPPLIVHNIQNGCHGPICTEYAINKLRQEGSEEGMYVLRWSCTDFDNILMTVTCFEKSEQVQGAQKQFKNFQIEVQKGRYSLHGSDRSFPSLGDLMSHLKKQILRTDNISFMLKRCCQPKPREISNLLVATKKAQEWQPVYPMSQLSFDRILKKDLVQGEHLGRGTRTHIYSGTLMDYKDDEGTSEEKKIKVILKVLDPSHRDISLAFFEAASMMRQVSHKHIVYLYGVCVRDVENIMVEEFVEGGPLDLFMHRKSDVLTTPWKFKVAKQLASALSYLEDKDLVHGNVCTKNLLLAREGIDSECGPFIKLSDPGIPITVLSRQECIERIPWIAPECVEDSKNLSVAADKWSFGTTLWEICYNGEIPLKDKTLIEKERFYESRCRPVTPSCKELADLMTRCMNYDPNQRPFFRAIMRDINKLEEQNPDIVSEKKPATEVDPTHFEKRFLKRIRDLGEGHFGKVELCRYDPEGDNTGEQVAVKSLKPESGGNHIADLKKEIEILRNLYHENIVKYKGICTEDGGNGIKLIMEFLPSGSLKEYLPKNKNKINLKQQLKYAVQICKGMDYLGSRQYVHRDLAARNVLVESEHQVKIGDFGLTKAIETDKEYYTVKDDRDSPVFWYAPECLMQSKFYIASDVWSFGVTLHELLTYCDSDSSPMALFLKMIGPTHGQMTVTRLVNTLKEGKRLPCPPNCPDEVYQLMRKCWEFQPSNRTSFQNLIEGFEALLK
row,IC50,SMILES
1,10 to 50 nM,"CC1=Cc2cc(Nc3nn([C@@H]4COCC[C@H]4C#N)cc3C(N)=O)cc(F)c2OB1O (single isomer, unassigned) [Example 14b, 1-[trans-4-cyanotetrahydro-2H-pyran-3-yl]-3-[(8-fluoro-2-hydroxy-3-methyl-1,2-benzoxaborinin-6-yl)amino]pyrazole-4-carboxamide]"
2,< 10 nM,"N#C[C@@H]1CCOC[C@H]1n1cc(C(N)=O)c(Nc2cc3c(c(C4CC4)c2)OB(O)C=C3)n1 (single isomer, unassigned) [Example 55a, 1-[trans-4-cyanotetrahydro-2H-pyran-3-yl]-3-[(8-cyclopropyl-2-hydroxy-1,2-benzoxaborinin-6-yl)amino]pyrazole-4-carboxamide]"
3,> 50 nM,"N#C[C@@H]1CCOC[C@H]1n1cc(C(N)=O)c(Nc2ccc3c(c2)B(O)OC3)n1 (single isomer, unassigned) [Example 16a, 1-(trans-4-cyanotetrahydro-2H-pyran-3-yl)-3-((1-hydroxy-1,3-dihydrobenzo[c][1,2]oxaborol-6-yl)amino)-1H-pyrazole-4-carboxamide]"
4,< 10 nM,"N#CC1CCOCC1n1cc(C(N)=O)c(Nc2ccc3c(c2)B(O)OCC3)n1 (stereo not drawn) [Example 42, 1-[trans-4-cyanotetrahydro-2H-pyran-3-yl]-3-[(1-hydroxy-3,4-dihydro-2,1-benzoxaborinin-7-yl)amino]pyrazole-4-carboxamide]"
5,< 10 nM,"N#C[C@@H]1CCOC[C@H]1n1cc(C(N)=O)c(Nc2cc(Cl)c3c(c2)COB3O)n1 (single isomer, unassigned) [Example 52b, 3-((7-chloro-1-hydroxy-1,3-dihydrobenzo[c][1,2]oxaborol-5-yl)amino)-1-(trans-4-cyanotetrahydro-2H-pyran-3-yl)-1H-pyrazole-4-carboxamide]"
6,< 10 nM,"N#C[C@@H]1CCCC[C@H]1n1cc(C(N)=O)c(Nc2ccc3c(c2)B(O)OC3)n1 (relative stereo) [Example 9, 1-(trans-2-cyanocyclohexyl)-3-[(1-hydroxy-3H-2,1-benzoxaborol-6-yl)amino]pyrazole-4-carboxamide]"
7,< 10 nM,"CC1=Cc2cc(Nc3nn([C@@H]4CCC[C@H]4C#N)cc3C(N)=O)cc(F)c2OB1O (relative stereo) [Example 15, 1-(trans-2-cyanocyclopentyl)-3-[(8-fluoro-2-hydroxy-3-methyl-1,2-benzoxaborinin-6-yl)amino]pyrazole-4-carboxamide]"
8,> 50 nM,"N#C[C@@H]1CCOC[C@H]1n1cc(C(N)=O)c(Nc2cc3c(c(C4CC4)c2)OB(O)C=C3)n1 (single isomer, unassigned) [Example 55b, 1-[trans-4-cyanotetrahydro-2H-pyran-3-yl]-3-[(8-cyclopropyl-2-hydroxy-1,2-benzoxaborinin-6-yl)amino]pyrazole-4-carboxamide]"
9,< 10 nM,"N#C[C@@H]1CCOC[C@H]1n1cc(C(N)=O)c(Nc2cc(F)c3c(c2)C=CB(O)O3)n1 (single isomer, unassigned) [Example 44b, 1-[trans-4-cyanotetrahydro-2H-pyran-3-yl]-3-[(8-fluoro-2-hydroxy-1,2-benzoxaborinin-6-yl)amino]pyrazole-4-carboxamide]"
10,< 10 nM,"N#C[C@@H]1CCCC[C@H]1n1cc(C(N)=O)c(Nc2ccc3c(c2)C=CB(O)O3)n1 (relative stereo) [Example 18, 1-(trans-2-cyanocyclohexyl)-3-[(2-hydroxy-1,2-benzoxaborinin-6-yl)amino]pyrazole-4-carboxamide]"
11,< 10 nM,"N#C[C@@H]1CCCC[C@H]1n1cc(C(N)=O)c(Nc2ccc3c(c2)COB3O)n1 (relative stereo) [Example 11, 1-(trans-2-cyanocyclohexyl)-3-((1-hydroxy-1,3-dihydrobenzo[c][1,2]oxaborol-5-yl)amino)-1H-pyrazole-4-carboxamide]"
12,10 to 50 nM,"N#C[C@@H]1CCOC[C@H]1n1cc(C(N)=O)c(Nc2cc3c(cc2F)OB(O)C=C3)n1 (relative stereo) [Example 29, 1-(trans-4-cyanotetrahydro-2H-pyran-3-yl)-3-[(7-fluoro-2-hydroxy-1,2-benzoxaborinin-6-yl)amino]pyrazole-4-carboxamide]"
13,< 10 nM,"CC(C)C1=Cc2cc(Nc3nn(C4COCCC4C#N)cc3C(N)=O)ccc2OB1O (stereo not drawn) [Example 48, 1-(trans-4-cyanotetrahydro-2H-pyran-3-yl)-3-((2-hydroxy-3-isopropyl-2H-benzo[e][1,2]oxaborinin-6-yl)amino)-1H-pyrazole-4-carboxamide]"
14,10 to 50 nM,"CC(C)C1=CB(O)Oc2ccc(Nc3nn([C@@H]4CCC[C@H]4C#N)cc3C(N)=O)cc21 (relative stereo) [Example 35, 1-(trans-2-cyanocyclopentyl)-3-[(2-hydroxy-4-isopropyl-1,2-benzoxaborinin-6-yl)amino]pyrazole-4-carboxamide]"
15,< 10 nM,"CC1=CB(O)Oc2ccc(Nc3nn(C4COCCC4C#N)cc3C(N)=O)cc21 (stereo not drawn) [Example 3, 1-[trans-4-cyanotetrahydro-2H-pyran-3-yl]-3-[(2-hydroxy-4-methyl-1,2-benzoxaborinin-6-yl)amino]pyrazole-4-carboxamide]"
16,< 10 nM,"CC1=Cc2cc(Nc3nn([C@@H]4CCC[C@H]4C#N)cc3C(N)=O)cc(F)c2OB1O (single isomer, unassigned) [Example 45a, 1-[trans-2-cyanocyclopentyl]-3-[(8-fluoro-2-hydroxy-3-methyl-1,2-benzoxaborinin-6-yl)amino]pyrazole-4-carboxamide]"
17,10 to 50 nM,"CC(C)C1=CB(O)Oc2ccc(Nc3nn([C@@H]4CCCC[C@H]4C#N)cc3C(N)=O)cc21 (relative stereo) [Example 34, 1-(trans-2-cyanocyclohexyl)-3-[(2-hydroxy-4-isopropyl-1,2-benzoxaborinin-6-yl)amino]pyrazole-4-carboxamide]"
18,10 to 50 nM,"CC1=C(C)c2cc(Nc3nn([C@@H]4CCC[C@H]4C#N)cc3C(N)=O)cc(C)c2OB1O (relative stereo) [Example 24, 1-(trans-2-cyanocyclopentyl)-3-[(2-hydroxy-3,4,8-trimethyl-1,2-benzoxaborinin-6-yl)amino]pyrazole-4-carboxamide]"
19,< 10 nM,"N#C[C@@H]1CCOC[C@H]1n1cc(C(N)=O)c(Nc2ccc3c(c2)C=CB(O)O3)n1 (single isomer, unassigned) [Example 51b, 1-[trans-4-cyanotetrahydro-2H-pyran-3-yl]-3-[(2-hydroxy-1,2-benzoxaborinin-6-yl)amino]pyrazole-4-carboxamide]"
20,10 to 50 nM,"N#C[C@@H]1CCOC[C@H]1n1cc(C(N)=O)c(Nc2cc(F)c3c(c2)B(O)OC3)n1 (relative stereo) [Example 1, 1-[trans-4-cyanotetrahydro-2H-pyran-3-yl]-3-[(4-fluoro-1-hydroxy-3H-2,1-benzoxaborol-6-yl)amino]pyrazole-4-carboxamide]"
21,< 10 nM,"N#C[C@@H]1CCOC[C@H]1n1cc(C(N)=O)c(Nc2ccc3c(c2)C=CB(O)O3)n1 (single isomer, unassigned) [Example 51a, 1-[trans-4-cyanotetrahydro-2H-pyran-3-yl]-3-[(2-hydroxy-1,2-benzoxaborinin-6-yl)amino]pyrazole-4-carboxamide]"
22,< 10 nM,"N#C[C@@H]1CCOC[C@H]1n1cc(C(N)=O)c(Nc2cc(F)c3c(c2)COB3O)n1 (single isomer, unassigned) [Example 38b, 1-[trans-4-cyanotetrahydropyran-3-yl]-3-[(7-fluoro-1-hydroxy-3H-2,1-benzoxaborol-5-yl)amino]pyrazole-4-carboxamide]"
23,< 10 nM,"Cc1cc(Nc2nn(C3COCCC3C#N)cc2C(N)=O)cc2c1B(O)OC2 (single isomer, unassigned) [Example 6a, 1-[trans-4-cyanotetrahydropyran-3-yl]-3-[(1-hydroxy-7-methyl-3H-2,1-benzoxaborol-5-yl)amino] pyrazole-4-carboxamide (stereoisomerone)]"
24,< 10 nM,"CC1=C(C)c2cc(Nc3nn([C@@H]4COCC[C@H]4C#N)cc3C(N)=O)ccc2OB1O (relative stereo) [Example 4, 1-(trans-4-cyanotetrahydro-2H-pyran-3-yl)-3-((2-hydroxy-3,4-dimethyl-2H-benzo[e][1,2]oxaborinin-6-yl)amino)-1H-pyrazole-4-carboxamide]"
25,< 10 nM,"CC1=CB(O)Oc2ccc(Nc3nn(C4COCCC4C#N)cc3C(N)=O)cc21 (single isomer, unassigned) [Example 3a, 1-[trans-4-cyanotetrahydro-2H-pyran-3-yl]-3-[(2-hydroxy-4-methyl-1,2-benzoxaborinin-6-yl)amino]pyrazole-4-carboxamide (stereoisomerone)]"
26,< 10 nM,"N#CC1CCOCC1n1cc(C(N)=O)c(Nc2ccc3c(c2)C=CB(O)O3)n1 (stereo not drawn) [Example 51, 1-(trans-4-cyanotetrahydro-2H-pyran-3-yl)-3-[(2-hydroxy-1,2-benzoxaborinin-6-yl)amino]pyrazole-4-carboxamide]"
27,< 10 nM,"N#C[C@@H]1CCC[C@H]1n1cc(C(N)=O)c(Nc2ccc3c(c2)COB3O)n1 (relative stereo) [Example 12, 1-(trans-2-cyanocyclopentyl)-3-((1-hydroxy-1,3-dihydrobenzo[c][1,2]oxaborol-5-yl)amino)-1H-pyrazole-4-carboxamide]"
